Test results: patent US20250059171A1 (Hoffmann-La Roche Inc., priority 2021, published 2025)

Experiments:
MERS-CoV 3CLpro = MERS-CoV 3CLpro (Middle East respiratory syndrome-related coronavirus, UniProt K9N7C7); assay: biochemical
SARS-CoV 3CLpro = SARS-CoV 3CLpro (Severe acute respiratory syndrome coronavirus, UniProt P0C6X7); assay: biochemical
HCoV-229E 3CLpro = HCoV-229E 3CLpro (Human coronavirus 229E, UniProt P0C6X1); assay: HCoV-229E 3CLpro inhibition assay (FRET); assay type: biochemical
HCoV-229E 3CLpro, sequence (P0C6X1 2966-3267): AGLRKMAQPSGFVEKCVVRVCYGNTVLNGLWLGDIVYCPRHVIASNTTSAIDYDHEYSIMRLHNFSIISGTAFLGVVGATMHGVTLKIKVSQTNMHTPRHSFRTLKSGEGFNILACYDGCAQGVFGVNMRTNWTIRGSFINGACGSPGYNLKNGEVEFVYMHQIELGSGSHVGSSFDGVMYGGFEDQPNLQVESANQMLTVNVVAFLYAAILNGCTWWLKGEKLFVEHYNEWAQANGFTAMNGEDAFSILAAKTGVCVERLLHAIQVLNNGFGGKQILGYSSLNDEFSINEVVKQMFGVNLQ

SARS-CoV-2 3CLpro = SARS-CoV-2 3CLpro (Severe acute respiratory syndrome coronavirus 2, UniProt P0DTD1); assay: biochemical

MERS-CoV 3CLpro, sequence (K9N7C7 3248-3553): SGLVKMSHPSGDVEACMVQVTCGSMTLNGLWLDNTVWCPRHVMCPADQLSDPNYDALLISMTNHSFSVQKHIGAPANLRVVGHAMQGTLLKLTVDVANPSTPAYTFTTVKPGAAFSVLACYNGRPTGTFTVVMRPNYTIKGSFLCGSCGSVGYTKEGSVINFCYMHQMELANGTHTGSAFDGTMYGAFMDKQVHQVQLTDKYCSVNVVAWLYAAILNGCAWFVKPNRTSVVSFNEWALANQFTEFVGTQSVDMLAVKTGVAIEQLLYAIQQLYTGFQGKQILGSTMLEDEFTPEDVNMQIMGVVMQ

Compound	IC50 (MERS-CoV 3CLpro)	IC50 (SARS-CoV 3CLpro)	IC50 (HCoV-229E 3CLpro)	IC50 (SARS-CoV-2 3CLpro)
CC[C@H](C)[C@H](NC(=O)C(C)C)C(=O)N1C[C@H]2[C@@H]([C@H]1C(=O)NN(C[C@@H]1CCNC1=O)C(=O)[C@@H](F)Cl)C2(C)C [Example 110, N-[(1S,2S)-1-[(1R,2S,5S)-2-[[[(2S)-2-chloro-2-fluoro-acetyl]-[[(3S)-2-oxopyrrolidin-3-yl]methyl]amino]carbamoyl]-6,6-dimethyl-3-azabicyclo[3.1.0]hexane-3-carbonyl]-2-methyl-butyl]-2-methyl-propanamide]	96 nM	33 nM	37 nM	24 nM
CC[C@@H](C)[C@H](NC(=O)C(F)F)C(=O)N1C[C@H]2[C@@H]([C@H]1C(=O)NN(C[C@@H]1CCNC1=O)C(=O)[C@H](F)Cl)C2(C)C [Example 112, N-[(1S,2R)-1-[(1R,2S,5S)-2-[[[(2R)-2-chloro-2-fluoro-acetyl]-[[(3S)-2-oxopyrrolidin-3-yl]methyl]amino]carbamoyl]-6,6-dimethyl-3-azabicyclo[3.1.0]hexane-3-carbonyl]-2-methyl-butyl]-2,2-difluoro-acetamide]	71 nM	14 nM	22 nM	8 nM
CC[C@@H](C)[C@H](NC(=O)C1CC(F)(F)C1)C(=O)N1C[C@H]2[C@@H]([C@H]1C(=O)NN(C[C@@H]1CCNC1=O)C(=O)[C@H](F)Cl)C2(C)C [Example 114, N-[(1S,2R)-1-[(1R,2S,5S)-2-[[[(2R)-2-chloro-2-fluoro-acetyl]-[[(3S)-2-oxopyrrolidin-3-yl]methyl]amino]carbamoyl]-6,6-dimethyl-3-azabicyclo[3.1.0]hexane-3-carbonyl]-2-methyl-butyl]-3,3-difluoro-cyclobutanecarboxamide]	113 nM	25 nM	29 nM	17 nM
CC[C@@H](C)[C@H](NC(=O)C1(F)CC1)C(=O)N1C[C@H]2[C@@H]([C@H]1C(=O)NN(C[C@@H]1CCNC1=O)C(=O)[C@H](F)Cl)C2(C)C [Example 115, N-[(1S,2R)-1-[(1R,2S,5S)-2-[[[(2R)-2-chloro-2-fluoro-acetyl]-[[(3S)-2-oxopyrrolidin-3-yl]methyl]amino]carbamoyl]-6,6-dimethyl-3-azabicyclo[3.1.0]hexane-3-carbonyl]-2-methyl-butyl]-1-fluoro-cyclopropanecarboxamide]	102 nM	15 nM	30 nM	9 nM
CC[C@@H](C)[C@H](NC(=O)[C@@H](C)F)C(=O)N1C[C@H]2[C@@H]([C@H]1C(=O)NN(C[C@@H]1CCNC1=O)C(=O)[C@H](F)Cl)C2(C)C [Example 116, (2R)—N-[(1S,2R)-1-[(1R,2S,5S)-2-[[[(2R)-2-chloro-2-fluoro-acetyl]-[[(3S)-2-oxopyrrolidin-3-yl]methyl]amino]carbamoyl]-6,6-dimethyl-3-azabicyclo[3.1.0]hexane-3-carbonyl]-2-methyl-butyl]-2-fluoro-propanamide]	98 nM	18 nM	36 nM	14 nM
CC[C@@H](C)[C@H](NC(=O)[C@H](C)F)C(=O)N1C[C@H]2[C@@H]([C@H]1C(=O)NN(C[C@@H]1CCNC1=O)C(=O)[C@H](F)Cl)C2(C)C [Example 117, (2S)—N-[(1S,2R)-1-[(1R,2S,5S)-2-[[[(2R)-2-chloro-2-fluoro-acetyl]-[[(3S)-2-oxopyrrolidin-3-yl]methyl]amino]carbamoyl]-6,6-dimethyl-3-azabicyclo[3.1.0]hexane-3-carbonyl]-2-methyl-butyl]-2-fluoro-propanamide]	86 nM	11 nM	25 nM	11 nM
CC[C@@H](C)[C@H](NC(=O)C1CC1)C(=O)N1C[C@H]2[C@@H]([C@H]1C(=O)NN(C[C@@H]1CCNC1=O)C(=O)[C@H](F)Cl)C2(C)C [Example 118, N-[(1S,2R)-1-[(1R,2S,5S)-2-[[[(2R)-2-chloro-2-fluoro-acetyl]-[[(3S)-2-oxopyrrolidin-3-yl]methyl]amino]carbamoyl]-6,6-dimethyl-3-azabicyclo[3.1.0]hexane-3-carbonyl]-2-methyl-butyl]cyclopropanecarboxamide]	109 nM	18 nM	27 nM	13 nM
CC[C@@H](C)[C@H](NC(=O)C1(F)CCC1)C(=O)N1C[C@H]2[C@@H]([C@H]1C(=O)NN(C[C@@H]1CCNC1=O)C(=O)[C@H](F)Cl)C2(C)C [Example 119, N-[(1S,2R)-1-[(1R,2S,5S)-2-[[[(2R)-2-chloro-2-fluoro-acetyl]-[[(3S)-2-oxopyrrolidin-3-yl]methyl]amino]carbamoyl]-6,6-dimethyl-3-azabicyclo[3.1.0]hexane-3-carbonyl]-2-methyl-butyl]-1-fluoro-cyclobutanecarboxamide]	206 nM	20 nM	56 nM	15 nM
CC[C@@H](C)[C@H](NC(=O)C(F)F)C(=O)N1C[C@H]2[C@@H]([C@H]1C(=O)NN(C[C@@H]1CCNC1=O)C(=O)[C@@H](F)Cl)C2(C)C [Example 120, N-[(1S,2R)-1-[(1R,2S,5S)-2-[[[(2S)-2-chloro-2-fluoro-acetyl]-[[(3S)-2-oxopyrrolidin-3-yl]methyl]amino]carbamoyl]-6,6-dimethyl-3-azabicyclo[3.1.0]hexane-3-carbonyl]-2-methyl-butyl]-2,2-difluoro-acetamide]	98 nM	34 nM	38 nM	19 nM
CC[C@@H](C)[C@H](NC(=O)C1(F)CC1)C(=O)N1C[C@H]2[C@@H]([C@H]1C(=O)NN(C[C@@H]1CCNC1=O)C(=O)[C@@H](F)Cl)C2(C)C [Example 121, N-[(1S,2R)-1-[(1R,2S,5S)-2-[[[(2S)-2-chloro-2-fluoro-acetyl]-[[(3S)-2-oxopyrrolidin-3-yl]methyl]amino]carbamoyl]-6,6-dimethyl-3-azabicyclo[3.1.0]hexane-3-carbonyl]-2-methyl-butyl]-1-fluoro-cyclopropanecarboxamide]	131 nM	50 nM	43 nM	26 nM
CC[C@@H](C)[C@H](NC(=O)[C@H](C)F)C(=O)N1C[C@H]2[C@@H]([C@H]1C(=O)NN(C[C@@H]1CCNC1=O)C(=O)[C@@H](F)Cl)C2(C)C [Example 122, (2S)—N-[(1S,2R)-1-[(1R,2S,5S)-2-[[[(2S)-2-chloro-2-fluoro-acetyl]-[[(3S)-2-oxopyrrolidin-3-yl]methyl]amino]carbamoyl]-6,6-dimethyl-3-azabicyclo[3.1.0]hexane-3-carbonyl]-2-methyl-butyl]-2-fluoro-propanamide]	146 nM	36 nM	46 nM	26 nM
CC[C@@H](C)[C@H](NC(=O)[C@@H](C)F)C(=O)N1C[C@H]2[C@@H]([C@H]1C(=O)NN(C[C@@H]1CCNC1=O)C(=O)[C@@H](F)Cl)C2(C)C [Example 123, (2R)—N-[(1S,2R)-1-[(1R,2S,5S)-2-[[[(2S)-2-chloro-2-fluoro-acetyl]-[[(3S)-2-oxopyrrolidin-3-yl]methyl]amino]carbamoyl]-6,6-dimethyl-3-azabicyclo[3.1.0]hexane-3-carbonyl]-2-methyl-butyl]-2-fluoro-propanamide]	146 nM	62 nM	51 nM	37 nM
CC[C@H](C)[C@H](NC(=O)C1CC(F)(F)C1)C(=O)N1C[C@@H]2CCC[C@@H]2[C@H]1C(=O)NN(C[C@@H]1CCNC1=O)C(=O)[C@H](F)Cl [Example 126, N-[(1S,2S)-1-[(3S,3aS,6aR)-3-[[[(2R)-2-chloro-2-fluoro-acetyl]-[[(3S)-2-oxopyrrolidin-3-yl]methyl]amino]carbamoyl]-3,3a,4,5,6,6a-hexahydro-1H-cyclopenta[c]pyrrole-2-carbonyl]-2-methyl-butyl]-3,3-difluoro-cyclobutanecarboxamide]	68 nM	11 nM	28 nM	10 nM
CC[C@H](C)[C@H](NC(=O)C(F)F)C(=O)N1C[C@@H]2CCC[C@@H]2[C@H]1C(=O)NN(C[C@@H]1CCNC1=O)C(=O)[C@@H](F)Cl [Example 127, N-[(1S,2S)-1-[(3S,3aS,6aR)-3-[[[(2S)-2-chloro-2-fluoro-acetyl]-[[(3S)-2-oxopyrrolidin-3-yl]methyl]amino]carbamoyl]-3,3a,4,5,6,6a-hexahydro-1H-cyclopenta[c]pyrrole-2-carbonyl]-2-methyl-butyl]-2,2-difluoro-acetamide]	68 nM	12 nM	35 nM	10 nM
CC[C@@H](C)[C@H](NC(=O)C1CC(F)(F)C1)C(=O)N1C[C@@H]2CCC[C@@H]2[C@H]1C(=O)NN(C[C@@H]1CCNC1=O)C(=O)[C@H](F)Cl [Example 128, N-[(1S,2R)-1-[(3S,3aS,6aR)-3-[[[(2R)-2-chloro-2-fluoro-acetyl]-[[(3S)-2-oxopyrrolidin-3-yl]methyl]amino]carbamoyl]-3,3a,4,5,6,6a-hexahydro-1H-cyclopenta[c]pyrrole-2-carbonyl]-2-methyl-butyl]-3,3-difluoro-cyclobutanecarboxamide]	97 nM	18 nM	36 nM	11 nM
CCC(CC)[C@H](NC(=O)C1CC1)C(=O)N1C[C@H]2[C@@H]([C@H]1C(=O)NN(C[C@@H]1CCNC1=O)C(=O)[C@H](F)Cl)C2(C)C [Example 129, N-[(1S)-1-[(1R,2S,5S)-2-[[[(2R)-2-chloro-2-fluoro-acetyl]-[[(3S)-2-oxopyrrolidin-3-yl]methyl]amino]carbamoyl]-6,6-dimethyl-3-azabicyclo[3.1.0]hexane-3-carbonyl]-2-ethyl-butyl]cyclopropanecarboxamide]	104 nM	16 nM	29 nM	11 nM
